Data: patent publication US6004950A, “2-aminopyridines as inhibitors of cyclooxygenase-2” (Merck Frosst Canada, Inc., priority 1998, dated 1999)
Read-outs that look alike come from different tables or passages of the source.

How the values were obtained:
COX-2 [1] = biological target: T1, COX-2 (Homo sapiens, UniProt P35354); assay: Human whole blood assay, COX-2 (LPS-induced PGE2 production); type: cell-based
T1 construct: incubation of human whole blood with LPS, which induces COX-2; endogenous in cells; host or cells: heparinized fresh whole blood of human volunteers, incubated with LPS for 24 h
T1 sequence (P35354 18-604): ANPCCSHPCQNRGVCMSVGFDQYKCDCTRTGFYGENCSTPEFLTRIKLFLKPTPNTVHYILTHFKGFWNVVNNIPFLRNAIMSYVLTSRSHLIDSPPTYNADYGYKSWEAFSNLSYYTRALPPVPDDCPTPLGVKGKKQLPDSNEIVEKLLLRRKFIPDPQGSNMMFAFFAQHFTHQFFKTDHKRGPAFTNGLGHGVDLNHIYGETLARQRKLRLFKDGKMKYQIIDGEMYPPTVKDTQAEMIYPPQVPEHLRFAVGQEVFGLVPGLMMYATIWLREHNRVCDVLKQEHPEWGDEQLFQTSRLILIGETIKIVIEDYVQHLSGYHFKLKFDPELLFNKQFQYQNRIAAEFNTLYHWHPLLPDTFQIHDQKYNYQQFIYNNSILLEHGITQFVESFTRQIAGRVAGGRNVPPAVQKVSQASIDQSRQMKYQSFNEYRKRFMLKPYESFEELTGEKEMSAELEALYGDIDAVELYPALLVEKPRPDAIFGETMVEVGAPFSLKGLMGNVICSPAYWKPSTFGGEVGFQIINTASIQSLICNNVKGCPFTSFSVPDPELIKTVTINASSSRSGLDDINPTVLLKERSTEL
Description: As well, platelets in whole blood contain a large amount of the COX-1 enzyme. Immediately following blood clotting, platelets are activated through a thrombin-mediated mechanism. This reaction results in the production of thromboxane B2 (TxB2) via activation of COX-1. Thus, the effect of test compounds on TxB2 levels following blood clotting can be examined and used as an index for COX-1 activity. Therefore, the degree of selectivity by the test compound can be determined by measuring the levels of PGE2 after LPS induction (COX-2) and TxB2 following blood clotting (COX-1) in the same assay.
A. COX-2 (LPS-induced PGE2 production)
Fresh blood is collected in heparinized tubes by venipuncture from both male and female volunteers. The subjects have no apparent inflammatory conditions and have not taken any NSAIDs for at least 7 days prior to blood collection. Plasma is immediately obtained from a 2 mL blood aliquot to use as blank (basal levels of PGE2).

COX-2 [2] = biological target: T1, COX-2; assay: Whole cell assay for COX-2 using CHO transfected cell line CHO[hCOX-2], inhibition of PGE2 synthesis; type: cell-based
Description: Whole cell assays for COX-2 and COX-1 using CHO transfected cell lines
Chinese hamster ovary (CHO) cell lines which have been stably transfected with an eukaryotic expression vector pCDNAIII containing either the human COX-1 or COX-2 cDNA's are used for the assay. These cell lines are referred to as CHO [hCOX-1] and CHO [hCOX-2], respectively. For cyclooxygenase assays, CHO[hCOX-1] cells from suspension cultures and CHO[hCOX-2] cells prepared by trypsinization of adherent cultures are harvested by centrifugation (300×g, 10 min) and washed once in HBSS containing 15 mM HEPES, pH 7.4, and resuspended in HBSS, 15 mM HEPES, pH 7.4, at a cell concentration of 1.5×10^6 cells/ml. Drugs to be tested are dissolved in DMSO to 66.7-fold the highest test drug concentration. […] Cells (0.3×10^6 cells in 200 μl) are preincubated with 3 μl of the test drug or DMSO vehicle for 15 min at 37° C. Working solutions of peroxide-free AA (5.5 μM and 110 μM AA for the CHO [hCOX-1] and CHO [COX-2] assays, respectively) are prepared by a 10-fold dilution of a concentrated AA solution in ethanol into HBSS containing 15 mM HEPES, pH 7.4. Cells are then challenged in the presence or absence of drug with the AA/HBSS solution to yield a final concentration of 0.5 μM AA in the CHO[hCOX-1] assay and a final concentration of 10 μM AA in the CHO[hCOX-2] assay. The reaction is terminated by the addition of 10 μl 1 N HCl followed by neutralization with 20 μl of 0.5 N NaOH. The samples are centrifuged at 300×g at 4° C. for 10 min, and an aliquot of the clarified supernatant is appropriately diluted for the determination of PGE2 levels using an enzyme-linked immunoassay for PGE2 (Correlate PGE2 enzyme immunoassay kit, Assay Designs, Inc.). Cyclooxygenase activity in the absence of test compounds is determined as the difference in PGE2 levels of cells challenged with arachidonic acid versus the PGE2 levels in cells mock-challenged with ethanol vehicle. Inhibition of PGE2 synthesis by test compounds is calculated as a percentage of the activity in the presence of drug versus the activity in the positive control samples.

COX-1 = COX-1 (Homo sapiens, UniProt P23219); assay: Assay of COX-1 activity from U937 cell microsomes; type: biochemical; design: Assay of COX-1 Activity from U937 cell microsomes; endogenous in cells; host or cells: U937 cells, 100,000×g microsomal pellet
Sequence of COX-1 (P23219 24-599): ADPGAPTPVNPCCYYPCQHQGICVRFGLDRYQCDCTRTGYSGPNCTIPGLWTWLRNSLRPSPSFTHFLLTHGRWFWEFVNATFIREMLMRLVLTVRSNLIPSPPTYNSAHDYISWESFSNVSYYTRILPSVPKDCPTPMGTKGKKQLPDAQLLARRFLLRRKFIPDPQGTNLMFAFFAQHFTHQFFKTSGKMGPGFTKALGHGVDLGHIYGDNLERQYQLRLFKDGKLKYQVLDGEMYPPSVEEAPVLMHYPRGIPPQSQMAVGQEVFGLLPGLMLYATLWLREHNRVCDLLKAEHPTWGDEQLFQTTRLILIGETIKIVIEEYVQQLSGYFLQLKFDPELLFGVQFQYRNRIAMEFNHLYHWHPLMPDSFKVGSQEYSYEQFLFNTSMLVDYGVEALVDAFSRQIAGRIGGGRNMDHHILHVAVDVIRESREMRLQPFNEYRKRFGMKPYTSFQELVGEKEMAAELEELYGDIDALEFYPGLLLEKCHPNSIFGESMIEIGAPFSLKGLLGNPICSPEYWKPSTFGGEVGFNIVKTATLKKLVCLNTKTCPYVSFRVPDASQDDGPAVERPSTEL
Protocol: Assay of COX-1 Activity from U937 cell microsomes
U 937 cells are pelleted by centrifugation at 500×g for 5 min and washed once with phosphate-buffered saline and repelleted. Cells are resuspended in homogenization buffer consisting of 0.1 M Tris-HCl, pH 7.4, 10 mM EDTA, 2 μg/ml leupeptin, 2 μg/ml soybean trypsin inhibitor, 2 μg/ml aprotinin and 1 mM phenyl methyl sulfonyl fluoride. The cell suspension is sonicated 4 times for 10 sec and is centrifuged at 10,000×g for 10 min at 4° C. The supernatant is centrifuged at 100,000×g for 1 hr at 4° C. The 100,000×g microsomal pellet is resuspended in 0.1 M Tris-HCl, pH 7.4, 10 mM EDTA to approximately 7 mg protein/ml and stored at -80° C.
Microsomal preparations are thawed immediately prior to use, subjected to a brief sonication, and then diluted to a protein concentration of 125 μg/ml in 0.1 M Tris-HCl buffer, pH 7.4 containing 10 mM EDTA, 0.5 mM phenol, 1 mM reduced glutathione and 1 μM hematin. Assays are performed in duplicate in a final volume of 250 μl. Initially, 5 μl of DMSO vehicle or drug in DMSO are added to 20 μl of 0.1 M Tris-HCl buffer, pH 7.4 containing 10 mM EDTA in wells of a 96-deepwell polypropylene titre plate. 200 μl of the microsomal preparation are then added and pre-incubated for 15 min at room temperature before addition of 25 μl of […] arachidonic acid in […] Tris-HCl and 10 mM EDTA, pH 7.4. Samples are incubated for 40 min at room temperature and the reaction is stopped by the addition of 25 μl of 1 N HCl. Samples are neutralized with 25 μl of 1 N NaOH prior to quantitation of PGE2 content by radioimmunoassay (Dupont-NEN or Amersham assay kits). Cyclooxygenase activity is defined as the difference between PGE2 levels in samples incubated in the presence of arachidonic acid and ethanol vehicle.
In the assay, inhibition is determined by measuring the amount of prostaglandin E2 (PGE2) synthesized in the presence of arachidonic acid, cyclooxygenase-1 or cyclooxygenase-2 and a putative inhibitor.

[3] = U937 cell microsomes, PGE2, read-out: COX-1 (IC50 mM) U-937
[4] = human whole blood, LPS-induced PGE2, 24 h, read-out: COX-2 (IC50 mM) HWB
[5] = CHO[hCOX-2] cells, 10 μM AA, PGE2, read-out: COX-2 (IC50 mM) CHO

In the case of `CS(=O)(=O)c1ccc(-c2cc(C(F)(F)F)cnc2N2CCC[C@H](CO)C2)cc1` (single isomer, unassigned) [Example 14, (-)-3-(4-Methylsulfonyl)phenyl-2-(3-hydroxymethyl)piperidin-1-yl-5-trifluoromethylpyridine], the IC50 (COX-2 [1]) is reported as 0.0005 mM, the IC50 (COX-2 [2]) is reported as 0.03 µM and the IC50 (COX-1; [3]) is reported as 0.003 to 0.01 mM.

With `CS(=O)(=O)c1ccc(-c2cc(C(F)(F)F)cnc2N2CCC[C@@H](CO)C2)cc1` (single isomer, unassigned) [Example 15, (+)-3-(4-Methylsulfonyl)phenyl-2-(3-hydroxymethyl)piperidin-1-yl-5-trifluoromethylpyridine] the IC50 (COX-2 [1]) was 0.0266 mM, the IC50 (COX-2 [2]) was 0.03 µM and the IC50 (COX-1; [3]) was greater than 0.01 mM.

With `CS(=O)(=O)c1ccc(-c2cc(C(F)(F)F)cnc2N2CCCC2)cc1` [Example 1, 3-(4-Methylsulfonyl)phenyl-2-pyrrolidin-1-yl-5-trifluoromethylpyridine] the IC50 (COX-2 [1]) was 0.0097 mM, the IC50 (COX-2 [2]) was 0.02 µM and the IC50 (COX-1) was greater than 0.01 mM.

`CS(=O)(=O)c1ccc(-c2cc(Cl)cnc2N2CCCCC2)cc1` [Example 3, 5-Chloro-3-(4-methylsulfonyl)phenyl-2-piperidin-1-ylpyridine] was tested, and the IC50 (COX-1; [3]) was 0.001 to 0.003 mM.

With `CS(=O)(=O)c1ccc(-c2cccnc2N2CCCCC2)cc1` [Example 4, 3-(4-Methylsulfonyl)phenyl-2-piperidin-1-ylpyridine] the IC50 (COX-2 [1]; [4]) was 0.006 mM, the IC50 (COX-2 [2]; [5]) was 0.13 µM and the IC50 (COX-1; [3]) was greater than 0.05 mM.

`CS(=O)(=O)c1ccc(-c2cc(C(F)(F)F)cnc2N2CC=CCC2)cc1` [Example 5, 3-(4-Methylsulfonyl)phenyl-2-(1,2,3,6-tetrahydropyridinyl)-5-trifluoromethylpyridine] showed an IC50 (COX-2 [1]; [4]) of 0.001 mM, an IC50 (COX-2 [2]; [5]) of 0.002 µM and an IC50 (COX-1; [3]) of 0.001 to 0.003 mM.

Compound `CS(=O)(=O)c1ccc(-c2cc(C(F)(F)F)cnc2N2CCCCCC2)cc1` [Example 6, 2-(Homopiperidin-1-yl)-3-(4-methylsulfonyl)phenyl-5-trifluoromethylpyridine] has an IC50 (COX-2 [1]; [4]) of 0.006 mM, an IC50 (COX-2 [2]; [5]) of 0.004 µM and an IC50 (COX-1; [3]) of 0.01 mM.

Work on `CS(=O)(=O)c1ccc(-c2cc(C(F)(F)F)cnc2N2CCC[C@H]2CO)cc1` [Example 7, 3-(4-Methylsulfonyl)phenyl-2-((2S)-2-hydroxymethyl)pyrrolidin-1-yl-5-trifluoromethylpyridine] yielded an IC50 (COX-2 [1]; [4]) of 0.0002 mM, an IC50 (COX-2 [2]; [5]) of 0.04 µM and an IC50 (COX-1; [3]) of 0.003 to 0.01 mM.

Compound `CS(=O)(=O)c1ccc(-c2cc(C(F)(F)F)cnc2N2CCC[C@@H]2CO)cc1` [Example 8, 3-(4-Methylsulfonyl)phenyl-2-((2R)-2-hydroxymethyl)pyrrolidin-1-yl-5-trifluoromethylpyridine] has an IC50 (COX-2 [1]; [4]) greater than 0.033 mM, an IC50 (COX-2 [2]; [5]) greater than 5 µM and an IC50 (COX-1; [3]) greater than 0.01 mM.

`CS(=O)(=O)c1ccc(-c2cc(Cl)cnc2N2CCC[C@H]2CO)cc1` [Example 9, 5-Chloro-3-(4-methylsulfonyl)phenyl-2-((2S)-2-hydroxymethyl)pyrrolidin-1-ylpyridine] was tested, and the IC50 (COX-2 [1]; [4]) was 0.0001 mM, the IC50 (COX-2 [2]; [5]) was 0.03 µM and the IC50 (COX-1; [3]) was 0.001 to 0.003 mM.

In the case of `COC[C@@H]1CCCN1c1ncc(C(F)(F)F)cc1-c1ccc(S(C)(=O)=O)cc1` [Example 10, 3-(4-Methylsulfonyl)phenyl-2-((2S)-2-methoxymethyl)pyrrolidin-1-yl-5-trifluoromethylpyridine], the IC50 (COX-2 [1]; [4]) is reported as 0.0031 mM, the IC50 (COX-2 [2]; [5]) is reported as 0.09 µM and the IC50 (COX-1; [3]) is reported as 0.003 to 0.01 mM.
